One may read the solubility as the concentration that dissolves in the medium under given conditions. High values mean much dissolved substance, low ones little dissolved substance. A word on the chromatographic logD: it is a lipophilicity value derived from retention on a column. Lower therefore signals a more hydrophilic compound. Usually Solubility stands for the dissolved amount per volume that the medium holds. High values mean much dissolved substance, low ones little dissolved substance.

≈ marks a conversion by molar mass, not a printed value. Starred links: 1 amine or outer side, 2 acyl side, 3 side chain; linkers in the order of their positions; H or OH if unused. Non-standard residues stand in square brackets, D forms with d. Residues, ends and D or L forms follow the SMILES beside them. X1 = C=CCOC(=O)N1CC[C@@](N[*:1])(C(=O)[*:2])C1; R8 = C=CCCCCCC[C@@](C)(N)C(=O)O

The record followed here is patent US20240116985A1, “STAPLED PEPTIDES AND METHODS THEREOF” (priority 2020, published 2024).

A short description of one series: Solubility in PBS. The format is physicochemical. To be noted: for solubility at 15 min: Solubility (uM). In short, it runs like this: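 Solubility is derived from HPLC peak areas: the ratio of the PBS supernatant peak to a 50 μM DMSO peptide peak, times 50 uM.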
The next series in a line: CHI Log D procedure. Conditions: for chromatographic logD: pH 7.4, CHI Log D; for CHI Log D: pH 7.4. The series is classed as physicochemical.

In the series “Solubility in PBS”, `C=CCCCCCC[C@@](C)(NC(=O)[C@H](C)NC(=O)[C@H](CC(=O)O)NC(=O)[C@H](Cc1ccccc1)NC(C)=O)C(=O)N[C@@H](CC(=O)O)C(=O)N[C@@H](CC(=O)O)C(=O)N[C@@H](C)C(=O)N[C@@H](C)C(=O)N[C@@H](Cc1ccccc1)C(=O)N[C@@H](CCC(N)=O)C(=O)N[C@@]1(C(=O)N[C@@H](Cc2ccccc2)C(=O)N[C@@H](Cc2c[nH]c3ccccc23)C(=O)N[C@@H](CCC(N)=O)C(N)=O)CCN(C(=O)OCC=C)C1` [I-579, Ac-Phe-Asp-Ala-R8-Asp-Asp-Ala-Ala-Phe-Gln-PyrS-Phe-Trp-Gln-NH2] (Ac-FDA[R8]DDAAFQ[X1]FWQ-NH2) gave a solubility at 15 min of 45 µM (≈ 84.6 µg/mL). In addition, the chromatographic logD in “CHI Log D procedure” was 1.51.
With `CC[C@H](C)[C@@H]1NC(=O)[C@H](CC(=O)O)NC(=O)[C@]2(CC=CCCCC3(CCCC=CCCCCCC[C@@](C)(C(=O)N[C@@H](Cc4ccccc4)C(=O)N[C@@H](Cc4ccccc4)C(=O)N[C@@H](CCC(N)=O)C(N)=O)NC(=O)[C@H](CCC(N)=O)NC(=O)[C@H](Cc4csc5ccccc45)NC(=O)[C@H](C)NC(=O)[C@H](C)NC(=O)[C@H](CCC(=O)O)NC(=O)[C@H](CC(=O)O)NC3=O)NC1=O)CCCN2C(C)=O` (stereo partly drawn) [I-585, Ac-PL3-Asp-Ile-B5-Asp-Glu-Ala-Ala-BztA-Gln-S8-Phe-Phe-Gln-NH2], the “Solubility” value in “Solubility in PBS” is 50 µM (≈ 94.2 µg/mL). Further, the “CHI Log D” value in “CHI Log D procedure” is recorded as 2.364.
With `CC[C@H](C)[C@@H]1NC(=O)[C@H](CC(=O)O)NC(=O)[C@]2(CC=CCCCC3(CCCC=CCCCCCC[C@@](C)(C(=O)N[C@@H](Cc4ccccc4)C(=O)N[C@@H](Cc4ccccc4)C(=O)N[C@@H](CCC(N)=O)C(N)=O)NC(=O)[C@H](CCC(N)=O)NC(=O)[C@H](Cc4csc5ccccc45)NC(=O)[C@H](C)NC(=O)[C@H](C)NC(=O)[C@H](CCC(=O)O)NC(=O)[C@H](CC(=O)O)NC3=O)NC1=O)CCCN2C(C)=O` (stereo partly drawn) [I-586, Ac-PL3-Asp-Ile-B5-Asp-Glu-Ala-Ala-BztA-Gln-S8-Phe-Phe-Gln-NH2], the “Solubility” value in the series “Solubility in PBS” was 50 µM (≈ 94.2 µg/mL). The “CHI Log D” value in the series “CHI Log D procedure” is recorded as 2.39.
Take `CC[C@H](C)[C@@H]1NC(=O)[C@H](CC(=O)O)NC(=O)[C@]2(CC=CCCCC3(CCCC=CCCCCCC[C@@](C)(C(=O)N[C@@H](CC(=O)O)C(=O)N[C@@H](Cc4csc5ccccc45)C(=O)N[C@@H](CCC(N)=O)C(N)=O)NC(=O)[C@H](CCC(N)=O)NC(=O)[C@H](Cc4ccccc4)NC(=O)[C@H](C)NC(=O)[C@H](C)NC(=O)[C@H](CCC(=O)O)NC(=O)[C@H](Cc4ccccc4)NC3=O)NC1=O)CCCN2C(C)=O` (stereo partly drawn) [I-587, Ac-PL3-Asp-Ile-B5-Phe-Glu-Ala-Ala-Phe-Gln-S8-Asp-BztA-Gln-NH2]: the “Solubility” value in “Solubility in PBS” is 50 µM (≈ 94.2 µg/mL). The compound further showed a chromatographic logD in “CHI Log D procedure” of 2.15.
For `CC[C@H](C)[C@@H]1NC(=O)[C@H](Cc2ccccc2)NC(=O)[C@]2(CC=CCCCC3(CCCC=CCCCCCC[C@@](C)(C(=O)N[C@@H](Cc4ccccc4)C(=O)N[C@@H](Cc4csc5ccccc45)C(=O)N[C@@H](CCC(N)=O)C(N)=O)NC(=O)[C@H](CCC(N)=O)NC(=O)[C@H](CC(=O)O)NC(=O)[C@H](C)NC(=O)[C@H](C)NC(=O)[C@H](CCC(=O)O)NC(=O)[C@H](CC(=O)O)NC3=O)NC1=O)CCCN2C(C)=O` (stereo partly drawn) [I-588, Ac-PL3-Phe-Ile-B5-Asp-Glu-Ala-Ala-Asp-Gln-S8-Phe-BztA-Gln-NH2], the solubility at 15 min in “Solubility in PBS” was 49 µM (≈ 92.3 µg/mL). The chromatographic logD in the series “CHI Log D procedure” was found to be 2.87.
Turning to `CC(=O)N1CCC[C@]12CC=CCCCC1(CCCC=CCCCCCC[C@@](C)(C(=O)N[C@@H](Cc3ccccc3)C(=O)N[C@@H](Cc3csc4ccccc34)C(N)=O)NC(=O)[C@H](CC(N)=O)NC(=O)[C@H](Cc3ccccc3)NC(=O)[C@H](C)NC(=O)[C@H](C)NC(=O)[C@H](CCC(=O)O)NC(=O)[C@H](CC(=O)O)NC1=O)NC(=O)[C@H](CC1CCCCC1)NC(=O)[C@H](CC(=O)O)NC2=O` (stereo partly drawn) [I-626, Ac-PL3-Asp-Cha-B5-Asp-Glu-Ala-Ala-Phe-Asn-S8-Phe-BztA-NH2], the “Solubility” value in the series “Solubility in PBS” was found to be 50 µM (≈ 89.1 µg/mL). Moreover, the “CHI Log D” value in the series “CHI Log D procedure” stood at 2.048.
